For data set [1], the system named is NRVM. Description: PE-mediated cardiomyocyte hypertrophy in NRVM (cell area measurement). Format: cell-based, rat. The following applies: nanomolar doses of JQ1 (250 nM), PE 100 μM, 48 hours. The method, then: NRVM were isolated from the hearts of 2 day old Sprague-Dawley rat pups (Charles River) and maintained under standard conditions as described (Haldar et al., 2010). The cells were differentially plated for 1.5 h in cell culture dishes to remove contaminating non-myocytes. Unless otherwise stated, NRVM were plated at a density of 10^5 cells/mL. Cells were initially plated in growth medium (DMEM supplemented with 5% FBS, 100 U/mL penicillin-streptomycin, and 2 mM L-glutamine) for 24-36 hours and maintained in serum-free media thereafter (DMEM supplemented with 0.1% BSA, 1% insulin-transferrin-selenium liquid media supplement (Sigma 13146), 100 U/mL penicillin-streptomycin, and 2 mM L-glutamine). Media was changed every 2-3 days. Prior to stimulation with agonists, NRVM were maintained in serum-free medium for 48-72 hours. For hypertrophic stimulation, NRVM were incubated with JQ1 versus DMSO at indicated concentrations for 6 h followed by stimulation with PE (100 μM) for indicated timepoints.
NRVM were plated on glass coverslips in 6-well dishes at a density of 10^5 cells/mL. After treatments, cells were briefly fixed in PBS containing 2% PFA, permeabilized with PBST/0.1% Triton X-100, and blocked in PBST/5% horse serum. Primary antibody was anti-sarcomeric α-actinin (Sigma A7811) at 1:800. Fluorophore-tagged anti-mouse secondary antibody (α-mouse Alexa 488 green) was used at 1:1000 dilution. Coverslips were mounted on glass slides with mounting media containing DAPI. Quantitation of cardiomyocyte cell surface area was performed on α-actinin-stained cardiomyocytes using fluorescent microscopy and NIH Image J software as previously described (Liang et al., 2001). Analysis consisted of at least 100 cardiomyocytes in 20-30 fields at 400× magnification. This process was replicated in a least three independent experiments, and the data were combined.

Data set [2] concerns mice subject to TAC. The data set can be described thus: TAC model with pre-established pathology, JQ1 begun day 18 post-TAC. Format: in vivo, mouse. The source says: Adult mice were subjected to pressure overload using transverse aortic constriction (TAC). JQ1 or vehicle was begun on day 18 post-TAC, a time point when significant pathology has already developed (FIG. 11). […] (N=6-12 per group). […] For example, patients typically present with pre-existing or established cardiac hypertrophy and/or heart failure.

Data set [3] relates to Neonatal rat ventricular cardiomyocytes (NRVM). Description: Doxorubicin mediated apoptosis in cultured cardiomyocytes (TUNEL). Format: cell-based. Particulars: JQ1 250 nM 3 hours, then Doxo 1 μM 24 hours. The protocol: Doxorubicin (Doxo) is an anthracycline compound commonly used as cytotoxic chemotherapy for cancer. Doxo causes dose-dependent toxicity to cardiomyocytes and can cause cardiac enlargement, fibrosis and heart failure in patients. Cardiotoxicity is dose-limiting for anthracyclines such as Doxorubicin and Daunorubicin. […] Neonatal rat ventricular cardiomyocytes (NRVM) were treated with or without JQ1 (250 nM) for 3 hours, followed by treatment±Doxo (1 μM) for another 24 hours. Cells were assayed for apoptosis by TUNEL staining and nuclei were counterstained with DAPI.

Data set [4] deals with primary Rat Aortic Smooth Muscle Cells (RASMC). The data set can be described thus: PDGF-bb induced pathologic smooth muscle cell activation. Format: cell-based. Particulars: JQ1 500 nM, PDGF-bb 10 ng/mL. The protocol:
All experiments were performed with primary Rat Aortic Smooth Muscle Cells (RASMC), PDGF-bb (10 ng/mL), and JQ1 (500 nM). JQ1 blocks hallmark features of pathologic smooth muscle activation in response to the agonist PDGF-bb such as (FIG. 14A) proliferation (quantified by radiolabeled thymidine incorporation), (FIG. 14B) migration (quantified using a Transwell migration assay), and (FIG. 14C) pathologic gene induction (qRT-PCR shown for Ptgs2/Cox2). These findings support the efficacy of BET bromodomain inhibition against pathologic smooth muscle growth (n=3-6 per group; *p<0.05 vs. vehicle; **p<0.05 vs. PDGF-bb).

For data set [5] the following is noted: adult mice, 50 mg/kg/day; cited from earlier work.

`Cc1sc2c(c1C)C(c1ccc(Cl)cc1)=N[C@@H](CC(=O)OC(C)(C)C)c1nnc(C)n1-2` [JQ1]: the “phenylephrine (PE) mediated cellular hypertrophy (cardiomyocyte area)” value in data set [1] is “significantly blocked”. Besides, in data set [2], the “progression of LV cavity dilation” value is recorded as “significantly attenuates”, the “progression of LV systolic dysfunction” value is recorded as “significantly attenuates”, the “progression of LV wall thickening” value is on record as “significantly attenuates” and the progression of cardiomegaly entry is on record as “significantly attenuates”. Besides, the “Doxo induced cardiotoxicity (apoptosis, TUNEL positive nuclei)” value in data set [3] is on record as “blocks”. Besides, in data set [4], the “PDGF-bb induced migration (Transwell migration assay)” value is “blocks”; the “PDGF-bb induced pathologic gene induction (qRT-PCR, Ptgs2/Cox2)” value is on record as “blocks”; the “PDGF-bb induced proliferation (radiolabeled thymidine incorporation)” value is reported as “blocks”. The “toxicity on chronic administration” value in data set [5] is given as “without significant toxicity”.

Values taken from patent US20160095867A1, “BET INHIBITION THERAPY FOR HEART DISEASE” (DANA-FARBER CANCER INSTITUTE, INC., priority 2013, published 2016).
